According to PubChem BioAssay (NCI):
“And” between values parts separate entries of the source, which are not always exact repeats. Equal values may be shown once.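 Briefly, cells in 96-well plates were exposed to five compound concentrations for 48 h, and endpoints were estimated by linear interpolation. GI50: concentration for 50% inhibition of growth. Definition used: TGI = concentration required for complete inhibition of growth.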

Experiments:
Assay in all cases: inhibition of tumour cell growth, NCI panel, 48 h
NCI-H226 lung = tested on: NCI-H226 lung
HS 578T breast = tested on: HS 578T breast
TK-10 renal = tested on: TK-10 renal
IGROV1 ovarian = tested on: IGROV1 ovarian
HCT-116 colon = tested on: HCT-116 colon
LOX IMVI melanoma = tested on: LOX IMVI melanoma
RPMI-8226 leukemia = tested on: RPMI-8226 leukemia
MALME-3M melanoma = tested on: MALME-3M melanoma
NCI/ADR-RES ovarian = tested on: NCI/ADR-RES ovarian
MDA-MB-231 breast = tested on: MDA-MB-231 breast

SMILES | GI50 (NCI-H226 lung) | TGI (NCI-H226 lung) | GI50 (HS 578T breast) | TGI (HS 578T breast) | GI50 (TK-10 renal) | TGI (TK-10 renal) [µM] | GI50 (IGROV1 ovarian) | TGI (IGROV1 ovarian) | GI50 (HCT-116 colon) | TGI (HCT-116 colon) | GI50 (LOX IMVI melanoma) | TGI (LOX IMVI melanoma) | GI50 (RPMI-8226 leukemia) | TGI (RPMI-8226 leukemia) | GI50 (MALME-3M melanoma) | TGI (MALME-3M melanoma) [µM] | GI50 (NCI/ADR-RES ovarian) | TGI (NCI/ADR-RES ovarian) [µM] | GI50 (MDA-MB-231 breast) | TGI (MDA-MB-231 breast)
Ic1ccc(-n2nnnc2-c2cnoc2-c2ccccc2)cc1 | 43 µM | > 78.9 µM | 42.7 µM | 98.4 µM | 41.5 µM | > 82.3 | > 73.6 µM | > 100 µM | > 43 µM | > 70 µM | 49.3 µM | > 100 µM | 22.4 µM | > 64 µM | > 44.2 µM | > 73.6 | 33 µM | > 85.2 | > 51.9 µM | > 91.2 µM
COc1cc(CNCCCN2C(=O)c3ccc4c5c(ccc(c35)C2=O)C(=O)N(CCCNCc2cc(OC)c(OC)c(OC)c2)C4=O)cc(OC)c1OC | 0.814 µM | 2 µM | 1.2 µM | 3.76 µM | 0.416 µM | 1.32 | 0.24 µM | 1.06 µM | 0.133 µM | 0.41 µM | 0.14 µM | 0.525 µM | 0.523 µM | 2.34 µM | 0.334 µM | 1.02 | 9.16 µM | 39 | 0.252 µM | 2.27 µM
CCCn1c(N)c(C(=O)N/N=C(/C)c2cc3cccc(OC)c3o2)sc1=S | 45.2 µM | > 100 µM | 17.7 µM | 69.9 µM | 28.8 µM | > 100 | 48.2 µM | > 100 µM | 17.4 µM | > 100 µM | 16.5 µM | > 100 µM | 53.6 µM | > 100 µM | 74 µM | > 100 | 18.6 µM | > 100 | > 100 µM | > 100 µM
Nc1nc(N)c(N=Nc2ccc([As](=O)(O)O)cc2)c(=O)[nH]1 |  | > 100 µM |  | > 100 µM |  | > 100 |  | > 100 µM |  | > 100 µM |  | > 100 µM |  | > 100 µM |  | > 100 |  | > 100 |  | > 100 µM
CCCCCCNC(=O)c1nc(-c2ccccc2)oc1Cc1ccc(OP(=O)(O)O)cc1 | 17 µM | 33.5 µM | 18.7 µM | 54.8 µM | 16.9 µM | 32.9 | 15.2 µM | 31.2 µM | 17.1 µM | 32.6 µM | 16.4 µM | 30.2 µM | 20.4 µM | 49 µM | 19.3 µM | 37 | 20.3 µM | 42 | 17.2 µM | 36.6 µM
Cc1ccc(/C=C/c2c(C(=O)/C=C/c3ccc(C(F)(F)F)cc3)c(C)nc3ccccc23)cc1 | 1.5 µM | 3.03 µM | 1.66 µM | 4.63 µM | 2.36 µM | 3.9 | 0.6 µM | 2.02 µM | 0.496 µM | 2.09 µM | 1.12 µM | 2.33 µM | 0.46 µM | 2.92 µM | 1.7 µM | 3.08 | 2.22 µM | 5.92 | 1.65 µM | 3.43 µM
NS(=O)(=O)c1ccc(N(/C=C/C(=O)C(F)(F)F)CC(=O)c2ccc(Cl)cc2)cc1 | 28.9 µM | 94.1 µM | > 100 µM | > 100 µM | 29.7 µM | 87.8 | 22.5 µM | 81.7 µM | 18.7 µM | 40 µM | 31.2 µM | 98.9 µM | 20.2 µM | 53.6 µM | 24.9 µM | 92.6 | 47.6 µM | > 100 | 36.3 µM | > 100 µM
COc1ccccc1N1CCN(CCCn2c(=O)c3c(OC)nc(C)cc3c(=O)n2-c2ccccc2)CC1 | > 100 µM | > 100 µM | > 100 µM | > 100 µM | > 100 µM | > 100 | > 100 µM | > 100 µM | > 100 µM | > 100 µM | > 100 µM | > 100 µM | > 100 µM | > 100 µM | > 100 µM | > 100 | > 100 µM | > 100 | > 100 µM | > 100 µM
COc1cccc2c1C(=O)c1c(O)c3c(c(O)c1C2=O)CC(O)(/C(C)=N/NC(=O)CCC(=O)N/N=C(\C)C1(O)Cc2c(O)c4c(c(O)c2C(OC2CC(N)C(O)C(C)O2)C1)C(=O)c1c(OC)cccc1C4=O)CC3OC1CC(N)C(O)C(C)O1 (stereo not given) | 0.324 µM | 1.39 µM | 0.261 µM | 2.3 µM | 0.574 µM | 6.69 | 0.108 µM | 1.08 µM | 0.147 µM | 0.914 µM | 0.126 µM | 1.05 µM | 0.209 µM | 4.17 µM | 0.285 µM | 1.12 | 13.5 µM | > 50 | 1.17 µM | > 50 µM
O=C(c1c(F)ccc(NS(=O)(=O)N2CC[C@@H](F)C2)c1F)c1c[nH]c2ncc(-c3cnc(C4CC4)nc3)cc12 | 4.81 µM and 9.14 µM | > 10 µM and 64.6 µM | 2.33 µM and 2.06 µM | > 10 µM and 15.7 µM | 3.53 µM and 8.03 µM | > 66.9 | 2.35 µM and 2.14 µM | > 10 µM and 17 µM | 4.52 µM and 4.11 µM | > 10 µM and 41.8 µM | 0.305 µM and 0.342 µM | > 10 µM and 17.2 µM | 5.59 µM and 5.45 µM | > 10 µM and 42.2 µM | 0.00378 µM and < 0.01 µM | < 0.043 | > 10 µM and 25.2 µM | > 100 | 2.88 µM and 3.47 µM | > 10 µM and 46.8 µM
C=CC(=O)N1CCC(C2CCNc3c(C(N)=O)c(-c4ccc(Oc5ccccc5)cc4)nn32)CC1 (stereo not given) | 11.1 µM | 69.4 µM | 20.6 µM | 78.4 µM | 1.29 µM | 11.6 | 0.796 µM | 16.9 µM | 17.6 µM | 39.5 µM | 13.3 µM | 29.4 µM | 12.4 µM | 39.5 µM | 14 µM | 34.6 | 16.4 µM | 61 | 19.2 µM | 92.5 µM
C[C@H]1Oc2cc(cnc2N)-c2c(nn(C)c2C#N)CN(C)C(=O)c2ccc(F)cc21 | 40.8 µM | > 100 µM | 18.3 µM | > 100 µM | 36.5 µM | > 100 | 28.1 µM | > 100 µM | 22.9 µM | > 100 µM | 40.5 µM | > 100 µM | > 100 µM | > 100 µM | 18.8 µM | > 100 | 65.5 µM | > 100 | 18.1 µM | > 100 µM
